{
  "source": "patent US20070207993A1",
  "about": "“Molybdenum carbonyl complexes for treating rheumatoid arthritis and other inflammatory diseases” (Alfama - Investigacao e Desenvolvimetno De Productos …, priority 2005, published 2007)",
  "key": {"[1]": {"test": "Spontaneous CO release from suspensions (gas chromatography, TCD)", "type": "physicochemical", "conditions": "dark; for Equivalents of CO released, H2O pH = 2.13: suspension in H2O pH 2.13, 37° C.; for Equivalents of CO released, H2O pH = 8.3: suspension in H2O pH 8.3, 37° C.; for Equivalents of CO released, RPMI: suspension in RPMI with 10% FBS; for Equivalents of CO released, RPMI / CO equivalents (average ± standard deviation) / Equivalents of CO released, Olive oil: 37° C.; for CO equivalents (average ± standard deviation): suspension in RPMI, eight independent assays; for Equivalents of CO released, Olive oil: suspension in olive oil", "procedure": "CO detection was carried out by Gas Chromatography using a thermal conductivity detector (TCD) for the quantification of CO and CO2. The experiments were done under an initial atmosphere of reconstituted air, free of CO and CO2. […] […] Samples were withdrawn with gas-tight Hamilton syringes after homogenization of the head-space at given time intervals, preferably 2 hours, 4 hours and 6 hours. […] The volumes of CO released are usually in the range between 0.5-3 mL.\nAs a possible result of the use of suspensions, the number of CO equivalents released in RPMI varied slightly. As an example of the possible variations, the average of eight independent assays done with suspensions of Compound I.1 is given in Table 2."}, "Sprague Dawley rats": {"tested_on": "Sprague Dawley rats", "test": "Toxicity in vivo, 20-day daily dosing", "set-up": "species or system rat", "conditions": "80 mg/kg daily for 20 days, in olive oil", "procedure": "Compound I.1 was dissolved in olive oil and administered to Sprague Dawley rats at a daily dose of 80 mg/kg for 20 days. At the end of the treatment the rats were anesthetized, blood was collected and organ samples were fixed in formalin for histological analysis."}, "[2]": {"test": "CO release in vivo (CO-hemoglobin in blood by oximeter)", "conditions": "Balb/c mice, intraperitoneal, 100, 25 and 6.25 mg/kg, propylene glycol-water; 0, 30, 120 (330) minutes", "procedure": "Nine week old Balb/c mice with a body weight of about 20 g were injected by the intraperitoneal route with Compound I.1 dissolved in a propylene glycol-water mixture. Three doses (100, 25 and 6.25 mg/kg) were used. At various times after the administration of the Compound I.1 blood was collected and CO-hemoglobin levels were determined using an oximeter.\nCompound I.1 was administered intraperitonally to mice at a concentration of 100 mg/kg using propylene glycol/water ca.˜2:1 as vehicle. The amount of COHb (carboxyhemoglobin) was monitored with an oximeter in blood samples withdrawn at 0, 30, 120 and 330 minutes after administration. The results are shown in FIG. 9 and show a peaked level of CO after 30 minutes followed by a slow decline.\nCompound I.1 was encapsulated in methylated β-cyclodextrin, 2,3,6-tri-O-methyl-β-cyclodextrin, known in the art as TRIMEB, by a standard technique. The encapsulated Compound I.1@TRIMEB (“@” means “encapsulated in”) was administered intraperitonally to mice at a concentration of 30 mg/kg using phosphate buffered saline (PBS) as vehicle. The amount of COHb (carboxyhemoglobin) was monitored with an oximeter in blood samples withdrawn after 30, 60, 90 and 120 minutes after administration."}, "Wistar rats": {"tested_on": "Wistar rats", "test": "Adjuvant arthritis in rats", "type": "in vivo, rat", "procedure": "Adjuvant arthritis was induced in 11 week old, outbred Wistar rats (376-400 g) by a single intradermal injection into the subplanatar area of the right hind paw of 100 microliter of a 10 mg/ml suspension of mycobacterium butyricum in incomplete Freund's Adjuvant. The disease was induced in 3 groups of rats each consisting of 7 animals. […] Groups 2 and 3 received daily applications of methylene chloride (positive control) (500 mg/kg), or Compound I.1 (80 mg/kg), respectively. Both compounds were administered in olive oil by oral gavage. Treatment was initiated at day 10 after disease induction when signs of arthritis began to appear in the injected footpad as well as in the contralateral footpad. […] All animals were evaluated daily by determination of body weight, foot pad volume (performed by a water displacement method using a plethysmometer, Ugo Basile, Comerio, Italy), ankle circumference (using a flexible measuring tape) and arthritic index that is based on levels of erythema and oedema of the entire paws and digits, number of joints involved, spondilosis, lesions on tail, movement capacity and infections (0=normal, 1=swelling and/or redness of injected paw; 4=severe arthritis of the entire injected paw and digits; +2=2 joints are involved; +3=>2 joints are involved; +1=infection of paws; +1=tail lesions; +1=movement incapacity; +1=spondilosis). […]"}},
  "data": [
    {"compound": "O=[C][Mo]([Br])([C]=O)([C]=O)([C]=O)[C]=O", "note": "[Compound I.1]", "values": [
      {"measurement": "Equivalents of CO released, H2O pH = 2.13", "setting": "[1]; 2 hours", "value": "0.98 equivalents of CO"},
      {"measurement": "Equivalents of CO released, H2O pH = 2.13", "setting": "[1]; 4 hours", "value": "1.00 equivalents of CO"},
      {"measurement": "Equivalents of CO released, H2O pH = 2.13", "setting": "[1]; 6 hours", "value": "0.93 equivalents of CO"},
      {"measurement": "Equivalents of CO released, H2O pH = 8.3", "setting": "[1]; 2 hours", "value": "1.24 equivalents of CO"},
      {"measurement": "Equivalents of CO released, H2O pH = 8.3", "setting": "[1]; 4 hours", "value": "1.03 equivalents of CO"},
      {"measurement": "Equivalents of CO released, H2O pH = 8.3", "setting": "[1]; 6 hours", "value": "0.98 equivalents of CO"},
      {"measurement": "Equivalents of CO released, RPMI", "setting": "[1]; 2 hours", "value": "1.82 equivalents of CO"},
      {"measurement": "Equivalents of CO released, RPMI", "setting": "[1]; 4 hours", "value": "2.16 equivalents of CO"},
      {"measurement": "Equivalents of CO released, RPMI", "setting": "[1]; 6 hours", "value": "2.27 equivalents of CO"},
      {"measurement": "CO equivalents (average ± standard deviation)", "setting": "[1]; 0.5 hours", "value": "0.64 ± 0.11", "unit": "CO equivalents"},
      {"measurement": "CO equivalents (average ± standard deviation)", "setting": "[1]; 1 hour", "value": "1.56 ± 0.13", "unit": "CO equivalents"},
      {"measurement": "CO equivalents (average ± standard deviation)", "setting": "[1]; 2 hours", "value": "1.82 ± 0.01", "unit": "CO equivalents"},
      {"measurement": "CO equivalents (average ± standard deviation)", "setting": "[1]; 3 hours", "value": "2.42 ± 0.38", "unit": "CO equivalents"},
      {"measurement": "CO equivalents (average ± standard deviation)", "setting": "[1]; 4 hours", "value": "2.16 ± 0.13", "unit": "CO equivalents"},
      {"measurement": "CO equivalents (average ± standard deviation)", "setting": "[1]; 5 hours", "value": "2.43 ± 0.39", "unit": "CO equivalents"},
      {"measurement": "CO equivalents (average ± standard deviation)", "setting": "[1]; 6 hours", "value": "2.27 ± 0.21", "unit": "CO equivalents"},
      {"measurement": "CO equivalents (average ± standard deviation)", "setting": "[1]; 7 hours", "value": "2.51 ± 0.00", "unit": "CO equivalents"},
      {"measurement": "CO equivalents (average ± standard deviation)", "setting": "[1]; 24 hours", "value": "2.40 ± 0.00", "unit": "CO equivalents"},
      {"measurement": "Equivalents of CO released, Olive oil", "setting": "[1]; 2 hours", "value": "0.08 equivalents of CO"},
      {"measurement": "Equivalents of CO released, Olive oil", "setting": "[1]; 4 hours", "value": "0.25 equivalents of CO"},
      {"measurement": "Equivalents of CO released, Olive oil", "setting": "[1]; 6 hours", "value": "0.53 equivalents of CO"},
      {"measurement": "histologic analysis of liver, kidney, heart, and spleen", "setting": "Sprague Dawley rats", "value": "did not reveal any gross alterations"},
      {"measurement": "serum creatinine", "setting": "Sprague Dawley rats", "value": "in the normal range"},
      {"measurement": "serum glutamic oxalacetic transaminase (sGOT)", "setting": "Sprague Dawley rats", "value": "in the normal range"},
      {"measurement": "serum glutamic pyruvic transaminase (sGPT)", "setting": "Sprague Dawley rats", "value": "in the normal range"},
      {"measurement": "serum urea", "setting": "Sprague Dawley rats", "value": "in the normal range"},
      {"measurement": "signs of liver or kidney toxicity", "setting": "Sprague Dawley rats", "value": "No signs of liver or kidney toxicity"},
      {"measurement": "CO-hemoglobin level time course", "setting": "[2]", "value": "increase in CO levels during the first time interval, followed by a slow decline"},
      {"measurement": "paw volume, paw circumference and arthritis index (all measured parameters) versus positive control", "setting": "Wistar rats; Wistar rats, 80 mg/kg daily oral gavage in olive oil, day 10 to 29, methylene chloride at 500 mg/kg", "value": "superior to methylene chloride"},
      {"measurement": "effect in control rats with severe arthritis treated from day 20 on", "setting": "Wistar rats; three rats of the control group, treated for 10 days", "value": "signs of improvements"}
    ]}
  ]
}
